Measurements as given in patent US9944646B2, “Bicyclic azaheterocyclobenzylamines as PI3K inhibitors” (Incyte Corporation, priority 2012, dated 2018).

What follows are compounds tested against PI3Kδ (Homo sapiens (Human), UniProt O00329) (assay: PI3K Enzyme Assay (Example A2), [γ-33P]ATP filter plate).
Assay type: biochemical
Protocol: Example A2: PI3K Enzyme Assay
Lipid kinase substrate, phosphoinositol-4,5-bisphosphate (PIP2), are purchased from Echelon Biosciences (Salt Lake City, Utah). PI3K isoforms α, β, δ and γ are purchased from Millipore (Bedford, Mass.). ATP, MgCl2, DTT, EDTA, MOPS and CHAPS are purchased from Sigma-Aldrich (St. Louis, Mo.).
The kinase reaction are conducted in clear-bottom 96-well plate from Thermo Fisher Scientific in a final volume of 24 μL. Inhibitors are first diluted serially in DMSO and added to the plate wells before the addition of other reaction components. The final concentration of DMSO in the assay is 0.5%. The PI3K assays are carried out at room temperature in 20 mM MOPS, pH 6.7, 10 mM MgCl2, 5 mM DTT and CHAPS 0.03%. The reaction mixture is prepared containing 50 µM PIP2, kinase and varying concentration of inhibitors. Reactions are initiated by the addition of ATP containing 2.2 μCi [γ-^33P]ATP to a final concentration of 1000 μM. The final concentration of PI3K isoforms α, β, δ and γ in the assay were 1.3, 9.4, 2.9 and 10.8 nM, respectively. Reactions are incubated for 180 minutes and terminated by the addition of 100 μL of 1 M potassium phosphate pH 8.0, 30 mM EDTA quench buffer. A 100 μL aliquot of the reaction solution are then transferred to 96-well Millipore MultiScreen IP […] PVDF filter plate (The filter plate is prewetted with 200 μL 100% ethanol, distilled water, and 1 M potassium phosphate pH 8.0, respectively). The filter plate is aspirated on a Millipore Manifold under vacuum and washed with 18×200 μL wash buffer containing 1 M potassium phosphate pH 8.0 and 1 mM ATP. After drying by aspiration and blotting, the plate is air dried in an incubator at 37° C. overnight. Packard TopCount adapter (Millipore) is then attached to the plate followed with addition of 120 μL Microscint 20 scintillation cocktail (Perkin Elmer) in each well. After the plate sealing, the radioactivity of the product is determined by scintillation counting on Topcount (Perkin-Elmer). IC50 determination is performed by fitting the curve of percent control activity versus the log of the inhibitor concentration using the GraphPad Prism 3.0 software.

PI3Kδ, sequence (O00329 whole entry): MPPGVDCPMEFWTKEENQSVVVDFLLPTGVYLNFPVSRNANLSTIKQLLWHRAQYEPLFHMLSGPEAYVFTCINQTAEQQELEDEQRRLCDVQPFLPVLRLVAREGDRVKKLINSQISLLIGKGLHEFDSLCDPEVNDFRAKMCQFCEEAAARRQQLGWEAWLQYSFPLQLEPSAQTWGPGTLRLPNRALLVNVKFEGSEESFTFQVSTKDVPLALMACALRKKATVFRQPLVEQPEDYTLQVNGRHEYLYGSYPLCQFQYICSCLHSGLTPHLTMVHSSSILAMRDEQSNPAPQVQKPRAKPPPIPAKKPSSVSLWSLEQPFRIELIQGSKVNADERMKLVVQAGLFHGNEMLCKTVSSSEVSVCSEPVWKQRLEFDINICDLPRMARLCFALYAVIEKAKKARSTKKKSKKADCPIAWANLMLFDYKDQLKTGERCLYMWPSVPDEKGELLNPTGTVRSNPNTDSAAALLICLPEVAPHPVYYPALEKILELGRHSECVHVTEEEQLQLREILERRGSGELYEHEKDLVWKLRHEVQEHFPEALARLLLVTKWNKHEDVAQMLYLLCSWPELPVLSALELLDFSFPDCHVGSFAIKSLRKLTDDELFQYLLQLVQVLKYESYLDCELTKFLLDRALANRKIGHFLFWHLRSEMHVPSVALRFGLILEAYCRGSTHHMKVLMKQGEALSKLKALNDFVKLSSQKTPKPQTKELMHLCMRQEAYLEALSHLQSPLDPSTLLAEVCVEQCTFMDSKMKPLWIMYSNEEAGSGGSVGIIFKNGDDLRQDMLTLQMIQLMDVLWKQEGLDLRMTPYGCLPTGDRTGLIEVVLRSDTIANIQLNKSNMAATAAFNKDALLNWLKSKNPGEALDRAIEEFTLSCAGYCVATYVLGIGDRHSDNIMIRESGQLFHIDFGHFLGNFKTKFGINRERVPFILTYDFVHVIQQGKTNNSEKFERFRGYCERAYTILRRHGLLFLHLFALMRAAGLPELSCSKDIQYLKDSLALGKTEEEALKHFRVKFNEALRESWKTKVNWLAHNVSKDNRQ
PI3Kδ, sequence (P27986 whole entry partner): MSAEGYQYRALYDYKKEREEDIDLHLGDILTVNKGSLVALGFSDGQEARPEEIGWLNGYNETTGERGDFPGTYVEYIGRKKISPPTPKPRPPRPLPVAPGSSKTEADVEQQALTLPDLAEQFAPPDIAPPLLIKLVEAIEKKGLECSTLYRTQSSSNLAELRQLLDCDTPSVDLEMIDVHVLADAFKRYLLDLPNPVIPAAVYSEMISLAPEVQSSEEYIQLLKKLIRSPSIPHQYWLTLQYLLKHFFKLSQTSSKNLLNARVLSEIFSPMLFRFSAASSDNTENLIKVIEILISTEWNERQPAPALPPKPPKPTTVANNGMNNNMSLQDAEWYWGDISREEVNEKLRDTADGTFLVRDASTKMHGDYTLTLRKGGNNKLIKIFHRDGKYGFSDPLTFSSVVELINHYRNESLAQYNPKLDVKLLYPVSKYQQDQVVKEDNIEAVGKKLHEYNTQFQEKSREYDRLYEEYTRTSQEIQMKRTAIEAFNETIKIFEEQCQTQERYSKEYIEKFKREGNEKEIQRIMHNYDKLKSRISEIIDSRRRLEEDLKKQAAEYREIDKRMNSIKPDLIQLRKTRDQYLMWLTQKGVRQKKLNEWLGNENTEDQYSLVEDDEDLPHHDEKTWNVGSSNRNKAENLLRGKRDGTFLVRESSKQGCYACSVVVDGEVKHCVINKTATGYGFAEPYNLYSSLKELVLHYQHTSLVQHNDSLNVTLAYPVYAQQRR

| IC50 | Structure (SMILES) |
| --- | --- |
| ≤ 100 nM | Cc1nn(C(C)c2cc(Cl)c(F)c3c2OC(C)CN(C2CN(C(=O)OC(C)(C)C)C2)C3)c2ncnc(N)c12 (single isomer, unassigned) [Example 26, tert-Butyl 3-[9-[1-(4-amino-3-methyl-1H-pyrazolo[3,4-d]pyrimidin-1-yl)ethyl]-7-chloro-6-fluoro-2-methyl-2,3-dihydro-1,4-benzoxazepin-4(5H)-yl]azetidine-1-carboxylate] |
| > 800 nM | CC(=O)N1CC(N2Cc3c(F)c(Cl)cc(C(C)n4nc(C)c5c(N)ncnc54)c3OC(C)C2)C1 (single isomer, unassigned) [Example 31, 1-{1-[4-(1-Acetylazetidin-3-yl)-7-chloro-6-fluoro-2-methyl-2,3,4,5-tetrahydro-1,4-benzoxazepin-9-yl]ethyl}-3-methyl-1H-pyrazolo[3,4-d]pyrimidin-4-amine] |
| 100 to 500 nM | CC(=O)N1CC(N2Cc3c(F)c(Cl)cc(C(C)n4nc(C)c5c(N)ncnc54)c3OC(C)C2)C1 (single isomer, unassigned) [Example 33, 1-{1-[4-(1-Acetylazetidin-3-yl)-7-chloro-6-fluoro-2-methyl-2,3,4,5-tetrahydro-1,4-benzoxazepin-9-yl]ethyl}-3-methyl-1H-pyrazolo[3,4-d]pyrimidin-4-amine] |
| ≤ 100 nM | Cc1nn(C(C)c2cc(Cl)c(F)c3c2OC[C@H](C)N(S(C)(=O)=O)C3)c2ncnc(N)c12 (single isomer, unassigned) [Example 35] |
| 500 to 1000 nM | Cc1nn(C(C)c2cc(Cl)c(F)c3c2OC[C@H](C)N(S(C)(=O)=O)C3)c2ncnc(N)c12 (single isomer, unassigned) [Example 36] |
| > 800 nM | Cc1nn(C(C)c2cc(Cl)c(F)c3c2OC(C)CN(S(C)(=O)=O)C3)c2ncnc(N)c12 (single isomer, unassigned) [Example 38, 1-{1-[7-Chloro-6-fluoro-2-methyl-4-(methylsulfonyl)-2,3,4,5-tetrahydro-1,4-benzoxazepin-9-yl]ethyl}-3-methyl-1H-pyrazolo[3,4-d]pyrimidin-4-amine] |
| > 800 nM | Cc1nn(C(C)c2cc(Cl)c(F)c3c2OC(C)CN(S(C)(=O)=O)C3)c2ncnc(N)c12 (single isomer, unassigned) [Example 39, 1-{1-[7-Chloro-6-fluoro-2-methyl-4-(methylsulfonyl)-2,3,4,5-tetrahydro-1,4-benzoxazepin-9-yl]ethyl}-3-methyl-1H-pyrazolo[3,4-d]pyrimidin-4-amine] |
| ≤ 100 nM | Cc1nn(C(C)c2cc(Cl)c(F)c3c2O[C@@H](C)CN(C2CC(C(N)=O)C2)C3)c2ncnc(N)c12 (single isomer, unassigned) [Example 44] |
| 100 to 500 nM | CC(=O)N1CC(N2Cc3c(C#N)c(Cl)cc(C(C)n4nc(C)c5c(N)ncnc54)c3OC(C)C2)C1 (single isomer, unassigned) [Example 48, 4-(1-Acetylazetidin-3-yl)-9-[1-(4-amino-3-methyl-1H-pyrazolo[3,4-d]pyrimidin-1-yl)ethyl]-7-chloro-2-methyl-2,3,4,5-tetrahydro-1,4-benzoxazepine-6-carbonitrile] |
| ≤ 100 nM | Cc1nn(C(C)c2cc(Cl)c(C#N)c3c2OC(C)CN(C2CN(CC(N)=O)C2)C3)c2ncnc(N)c12 (single isomer, unassigned) [Example 50, 2-{3-[9-[1-(4-Amino-3-methyl-1H-pyrazolo[3,4-d]pyrimidin-1-yl)ethyl]-7-chloro-6-cyano-2-methyl-2,3-dihydro-1,4-benzoxazepin-4(5H)-yl]azetidin-1-yl}acetamide] |
| ≤ 100 nM | Cc1nn(C(C)c2cc(Cl)c(C#N)c3c2OC(C)CN(C2CN(CC(N)=O)C2)C3)c2ncnc(N)c12 (single isomer, unassigned) [Example 51, 2-{3-[9-[1-(4-Amino-3-methyl-1H-pyrazolo[3,4-d]pyrimidin-1-yl)ethyl]-7-chloro-6-cyano-2-methyl-2,3-dihydro-1,4-benzoxazepin-4(5H)-yl]azetidin-1-yl}acetamide] |
| ≤ 100 nM | Cc1nn(C(C)c2cc(Cl)c(C#N)c3c2OC(C)CN(C2CN(CC(N)=O)C2)C3)c2ncnc(N)c12 (single isomer, unassigned) [Example 53, 2-{3-[9-[1-(4-Amino-3-methyl-1H-pyrazolo[3,4-d]pyrimidin-1-yl)ethyl]-7-chloro-6-cyano-2-methyl-2,3-dihydro-1,4-benzoxazepin-4(5H)-yl]azetidin-1-yl}acetamide] |
| ≤ 100 nM | Cc1nn(C(C)c2cc(Cl)c(C#N)c3c2OC(C)CN(C2CN(CC(C)(C)O)C2)C3)c2ncnc(N)c12 (single isomer, unassigned) [Example 54, 9-[1-(4-Amino-3-methyl-1H-pyrazolo[3,4-d]pyrimidin-1-yl)ethyl]-7-chloro-4-[1-(2-hydroxy-2-methylpropyl)azetidin-3-yl]-2-methyl-2,3,4,5-tetrahydro-1,4-benzoxazepine-6-carbonitrile] |
| ≤ 100 nM | Cc1nn(C(C)c2cc(Cl)c(C#N)c3c2OC(C)CN(C2CN(CC(C)(C)O)C2)C3)c2ncnc(N)c12 (single isomer, unassigned) [Example 55, 9-[1-(4-Amino-3-methyl-1H-pyrazolo[3,4-d]pyrimidin-1-yl)ethyl]-7-chloro-4-[1-(2-hydroxy-2-methylpropyl)azetidin-3-yl]-2-methyl-2,3,4,5-tetrahydro-1,4-benzoxazepine-6-carbonitrile] |
| ≤ 100 nM | Cc1nn(C(C)c2cc(Cl)c(C#N)c3c2OC(C)CN(Cc2cccnc2)C3)c2ncnc(N)c12 (single isomer, unassigned) [Example 59, 9-[1-(4-Amino-3-methyl-1H-pyrazolo[3,4-d]pyrimidin-1-yl)ethyl]-7-chloro-2-methyl-4-(pyridin-3-ylmethyl)-2,3,4,5-tetrahydro-1,4-benzoxazepine-6-carbonitrile] |
| ≤ 100 nM | Cc1nn(C(C)c2cc(Cl)c(C#N)c3c2OC(C)CN(Cc2cccnc2)C3)c2ncnc(N)c12 (single isomer, unassigned) [Example 60, 9-[1-(4-Amino-3-methyl-1H-pyrazolo[3,4-d]pyrimidin-1-yl)ethyl]-7-chloro-2-methyl-4-(pyridin-3-ylmethyl)-2,3,4,5-tetrahydro-1,4-benzoxazepine-6-carbonitrile] |
| > 800 nM | Cc1nn(C(C)c2cc(Cl)c(C#N)c3c2OC(C)CN(CCO)C3)c2ncnc(N)c12 (single isomer, unassigned) [Example 61, 9-[1-(4-Amino-3-methyl-1H-pyrazolo[3,4-d]pyrimidin-1-yl)ethyl]-7-chloro-4-(2-hydroxyethyl)-2-methyl-2,3,4,5-tetrahydro-1,4-benzoxazepine-6-carbonitrile] |
| 100 to 500 nM | Cc1nn(C(C)c2cc(Cl)c(C#N)c3c2OC(C)CN(CCO)C3)c2ncnc(N)c12 (single isomer, unassigned) [Example 64, 9-[1-(4-Amino-3-methyl-1H-pyrazolo[3,4-d]pyrimidin-1-yl)ethyl]-7-chloro-4-(2-hydroxyethyl)-2-methyl-2,3,4,5-tetrahydro-1,4-benzoxazepine-6-carbonitrile] |
| ≤ 100 nM | Cc1nn(C(C)c2cc(Cl)c(C#N)c3c2OC(C)CN(CC(C)(C)O)C3)c2ncnc(N)c12 (single isomer, unassigned) [Example 65, 9-[1-(4-Amino-3-methyl-1H-pyrazolo[3,4-d]pyrimidin-1-yl)ethyl]-7-chloro-4-(2-hydroxy-2-methylpropyl)-2-methyl-2,3,4,5-tetrahydro-1,4-benzoxazepine-6-carbonitrile] |
| ≤ 100 nM | Cc1nn(C(C)c2cc(Cl)c(C#N)c3c2OC(C)CN(CC(C)(C)O)C3)c2ncnc(N)c12 (single isomer, unassigned) [Example 66, 9-[1-(4-Amino-3-methyl-1H-pyrazolo[3,4-d]pyrimidin-1-yl)ethyl]-7-chloro-4-(2-hydroxy-2-methylpropyl)-2-methyl-2,3,4,5-tetrahydro-1,4-benzoxazepine-6-carbonitrile] |
| ≤ 100 nM | CC(=O)NC1CC(N2Cc3c(C#N)c(Cl)cc(C(C)n4nc(C)c5c(N)ncnc54)c3OC(C)C2)C1 (single isomer, unassigned) [Example 67, N-{3-[9-[1-(4-Amino-3-methyl-1H-pyrazolo[3,4-d]pyrimidin-1-yl)ethyl]-7-chloro-6-cyano-2-methyl-2,3-dihydro-1,4-benzoxazepin-4(5H)-yl]cyclobutyl}acetamide] |
| ≤ 100 nM | CC(=O)NC1CC(N2Cc3c(C#N)c(Cl)cc(C(C)n4nc(C)c5c(N)ncnc54)c3OC(C)C2)C1 (single isomer, unassigned) [Example 68, N-{3-[9-[1-(4-Amino-3-methyl-1H-pyrazolo[3,4-d]pyrimidin-1-yl)ethyl]-7-chloro-6-cyano-2-methyl-2,3-dihydro-1,4-benzoxazepin-4(5H)-yl]cyclobutyl}acetamide] |
